Like-named read-outs stand apart in the source and are kept apart here.
Assays:
[1] = Oral bioavailability (rat); format: in vivo; settings: for bioavailability: in vivo, po
HSV-2 thymidine kinase = HSV-2 thymidine kinase (Human herpesvirus 2, UniProt P89446); assay: inhibition of HSV-2 thymidine kinase; format: biochemical
Method: In this test procedure, the assay mixture contains 50 mmol Tris HCl, pH 8, 5 mmol magnesium chloride, 5 mmol ATP, 0.3 μmol ^3 H-thymidine (50 Ci/mmol), suitably diluted enzyme preparation and various concentrations of test compounds in a total volume of 100 μl. Assays are incubated at 37° C. for 30 minutes and the reaction is terminated by immersion in a boiling water bath for 2 minutes. 85 μl aliquots from each assay are then dried on to DEAE-cellulose paper discs and the unphosphorylated ^3 H-thymidine is removed by washing in 4 mmol ammonium formate. The radioactivity remaining bound to the discs is then measured by scintillation spectrophotometry. The degree of inhibition at each concentration of test compound is expressed as a percentage of the control reaction (100%) after subtracting a measured blank value which represents the amount of radioactivity bound to the disc from a reaction containing heat-inactivated enzymes. The lC50 value, namely the concentration of test compound which inhibits enzyme activity by 50%, is then calculated.

[2] = 37° C., 30 minutes, pH 8, 3H-thymidine, read-out: Activity against HSV-2 TK, IC50

Sequence of HSV-2 thymidine kinase (P89446 whole entry): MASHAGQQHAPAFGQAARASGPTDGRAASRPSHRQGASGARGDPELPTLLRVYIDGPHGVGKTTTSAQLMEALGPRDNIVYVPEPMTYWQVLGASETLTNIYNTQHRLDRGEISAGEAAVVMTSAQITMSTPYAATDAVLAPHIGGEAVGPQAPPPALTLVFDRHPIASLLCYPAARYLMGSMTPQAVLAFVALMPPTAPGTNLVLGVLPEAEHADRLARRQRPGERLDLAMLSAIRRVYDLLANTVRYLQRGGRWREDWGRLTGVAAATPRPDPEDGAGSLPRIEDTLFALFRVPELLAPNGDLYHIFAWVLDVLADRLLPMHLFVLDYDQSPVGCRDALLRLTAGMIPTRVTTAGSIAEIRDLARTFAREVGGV

SMILES: CCc1cn([C@@H]2O[C@H](CNC(=O)C(C)Oc3ccc(Cl)cc3Cl)[C@@H](O)[C@@H]2F)c(=O)[nH]c1=O (single isomer, unassigned) [Compound B, diastereoisomer b]
- Oral bioavailability (rat) [1]: 12.9%

SMILES: CCc1cn([C@@H]2O[C@H](CNC(=O)[C@H](C)Oc3cc(OC)c(Cl)cc3Cl)[C@@H](O)[C@@H]2F)c(=O)[nH]c1=O [Compound (I), 1-[5-[2(S)-(2,4-dichloro-5-methoxy-phenoxy)propionamido]-2,5-dideoxy-2-fluoro-β-D-arabino-furanosyl]-5-ethyluracil]
- bioavailability [1]: 26%
- IC50 (HSV-2 thymidine kinase): 0.18 nM

SMILES: CCc1cn([C@@H]2O[C@H](CNC(=O)C(C)Oc3ccc(Cl)cc3Cl)[C@@H](O)[C@@H]2F)c(=O)[nH]c1=O (mixture of isomers) [Compound B]
- IC50 (HSV-2 thymidine kinase; [2]): 4 nM

SMILES: CCc1cn([C@@H]2O[C@H](CNC(=O)C(C)Oc3ccc(Cl)cc3Cl)[C@@H](O)[C@@H]2F)c(=O)[nH]c1=O (single isomer, unassigned) [Compound B, diastereoisomer a]
- bioavailability [1]: 14.4%

SMILES: CCc1cn([C@H]2C[C@H](O)[C@@H](CNC(=O)C(C)Oc3ccc(Cl)cc3Cl)O2)c(=O)[nH]c1=O (mixture of isomers) [Compound A]
- IC50 (HSV-2 thymidine kinase; [2]): 3.7 nM

SMILES: CCc1cn([C@H]2C[C@H](O)[C@@H](CNC(=O)C(C)Oc3ccc(Cl)cc3Cl)O2)c(=O)[nH]c1=O (single isomer, unassigned) [compound A, diastereoisomer b]
- Oral bioavailability (rat) [1]: too low to calculate

SMILES: CCc1cn([C@H]2C[C@H](O)[C@@H](CNC(=O)C(C)Oc3ccc(Cl)cc3Cl)O2)c(=O)[nH]c1=O (single isomer, unassigned) [Compound A, diastereoisomer a]
- bioavailability [1]: 2.84%

— US5698532A, “Pyrimidine nucleosides and methods for treating viral infections with same” (priority 1995, dated 1997)
